# Patent publication US8629256B2, “Genetically encoded calcium indicator polypeptides and nucleic acids encoding same” (Howard Hughes Medical Institute, priority 2009, dated 2014)
# Tests used:
# [1] = target: T1, histamine 1 receptor H1R (Homo sapiens, UniProt P35367); assay: H1R calcium flux fluorescence assay with GCaMP3 or small molecule dye kits; format: cell-based; details: HEK293 and HeLa cells
# T1 construct: The H1R was cloned into the pCAG mammalian expression vector; expressed in transfected cells; host or cells: HEK293 and HeLa cells, transfected with pCAG-H1R (with pCAG-GCaMP3 or loaded with a dye kit)
# T1 sequence (P35367 with tags, fused parts or gaps): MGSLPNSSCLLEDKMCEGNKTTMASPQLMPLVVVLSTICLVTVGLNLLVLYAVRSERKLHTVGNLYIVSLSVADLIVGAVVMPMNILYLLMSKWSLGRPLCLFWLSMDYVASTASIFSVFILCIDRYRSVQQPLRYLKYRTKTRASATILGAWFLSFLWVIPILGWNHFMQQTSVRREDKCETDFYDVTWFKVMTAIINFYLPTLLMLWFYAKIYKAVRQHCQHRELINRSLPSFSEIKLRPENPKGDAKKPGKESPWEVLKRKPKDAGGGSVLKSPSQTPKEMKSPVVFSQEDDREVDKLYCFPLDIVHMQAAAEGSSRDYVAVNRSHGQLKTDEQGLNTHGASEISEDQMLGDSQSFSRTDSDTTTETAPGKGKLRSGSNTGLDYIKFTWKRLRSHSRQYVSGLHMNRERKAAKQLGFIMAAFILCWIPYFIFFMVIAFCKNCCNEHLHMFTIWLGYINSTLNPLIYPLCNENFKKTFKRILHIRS
# Procedure: The nucleic acid sequence was cloned into a mammalian expression vector driving from the CAG promoter (pCAG).
# The H1R was cloned into the pCAG mammalian expression vector. […] In parallel, HEK293 cells were transfected with pCAG-H1R and incubated with either of the two best-performing small molecule dye calcium kits (the BD Calcium Kit from BD Biosciences and the FLIPR Calcium-5 Kit from Molecular Devices). […] Biophys.
# [2] = tested on: HEK293 cells; assay: Baseline fluorescence (brightness) of GCaMP-transfected HEK293 cells; format: cell-based, human; details: 10 μM proteasome inhibitor
# Procedure: FIGS. 1A-1E show the in vitro characterization of GCaMP3. […] FIG. 1B is a schematic representation of GCaMP2 and GCaMP3. Mutated residues are shown below GCaMP3. FIG. 1C is a graph of the fluorescence spectra of GCaMP3 and GCaMP2 (1 μM protein) with 1 mM Ca^2+ or 10 mM EGTA in MOPS buffer (30 mM MOPS, 100 mM KCl, pH 7.5) (average of three independent measurements). The fluorescence intensity of each indicator was normalized to the peak of the calcium-saturated spectrum. […] FIG. 1D is a graph of the Ca^2+ titration curve (1 μM protein) in MOPS buffer. […] FIG. 1E is images (left) and a graph (right) showing the improved baseline fluorescence of GCaMP3 compared to GCaMP2. Both indicators were either transfected to HEK293 cells or virally delivered to layer 2/3 cortical neurons. Images were taken either 48 hours post-transfection or 12 days post-viral injection, then analyzed with VOLOCITY® 5.0 (Improvision Imaging Processing & Vision Co., Coventry, England). 50 μm scale bar. […]
# GCaMPs in pCMV were transfected into HEK293 cells using Lipofectamine 2000 (Invitrogen, Carlsbad, Calif.), and imaging experiments were performed 48 hours post transfection. 293 cells transfected with GCaMPs in 96-well plate were imaged on an FDSS plate reader (Hamamatsu, Japan). Acetylcholine (Ach) was automatically added 10 seconds after read initiation. Brightness was quantified using VOLOCITY® 5.0 (Improvision).
structure (smiles),measurement,setting,value
O=C(O)COCCN1CCN(C(c2ccccc2)c2ccc(Cl)cc2)CC1 (stereo not drawn) [cetirizine],response-to-baseline ratio,"[1]; 10 nM histamine plus antagonist, all detection methods",~1.0
same,inhibition of the H1R receptor,"[1]; 10 nM histamine, GCaMP3 and both dye kits",near complete inhibition
CC(=O)N[C@@H](CSC(=O)[C@]1([C@@H](O)C(C)C)NC(=O)[C@H](C)[C@@H]1O)C(=O)O [lactacystin],effect on baseline fluorescence of HEK293 cells expressing GCaMP2,[2],increased the baseline fluorescence
